Assay results published in article PMC3548273, “Rodent Thyroid, Liver, and Fetal Testis Toxicity of the Monoester Metabolite of Bis-(2-ethylhexyl) Tetrabromophthalate (TBPH), a Novel Brominated Flame Retardant Present in Indoor Dust” (Environmental Health Perspectives, 2012).

Tests used:
Type in all cases: cell-based
PPARγ [1] = target: T1, PPARγ (Mus musculus, UniProt P37238); assay: FABP4 target gene expression (qPCR) in NIH 3T3 L1 cells at […]; conditions: NIH3T3, read-out: FABP4 target gene expression (qPCR) in NIH 3T3 L1 cells at 100 μM
T1 construct: gene Pparg
T1 sequence (P37238 1-505): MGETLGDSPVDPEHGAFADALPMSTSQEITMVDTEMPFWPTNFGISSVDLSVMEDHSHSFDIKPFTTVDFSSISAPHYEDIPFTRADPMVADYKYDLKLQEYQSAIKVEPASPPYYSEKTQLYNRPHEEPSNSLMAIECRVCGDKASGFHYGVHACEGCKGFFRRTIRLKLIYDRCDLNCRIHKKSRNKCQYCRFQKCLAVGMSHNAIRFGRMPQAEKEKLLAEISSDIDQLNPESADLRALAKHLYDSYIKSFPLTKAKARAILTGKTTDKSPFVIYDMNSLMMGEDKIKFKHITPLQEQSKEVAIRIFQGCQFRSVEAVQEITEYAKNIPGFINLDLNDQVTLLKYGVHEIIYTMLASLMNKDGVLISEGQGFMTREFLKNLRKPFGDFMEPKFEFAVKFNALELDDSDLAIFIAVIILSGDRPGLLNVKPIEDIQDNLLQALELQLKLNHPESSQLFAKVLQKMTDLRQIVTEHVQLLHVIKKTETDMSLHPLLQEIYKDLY

PPARα [2] = target: T2, PPARα (Mus musculus, UniProt P23204); assay: AOX target gene expression (qPCR) in FAO-PPARα cells at […]; conditions: read-out: AOX target gene expression (qPCR) in FAO-PPARα cells at 100 μM
T2 construct: gene Ppara; FAO cells stably transfected with mouse PPARα
T2 sequence (P23204 1-468): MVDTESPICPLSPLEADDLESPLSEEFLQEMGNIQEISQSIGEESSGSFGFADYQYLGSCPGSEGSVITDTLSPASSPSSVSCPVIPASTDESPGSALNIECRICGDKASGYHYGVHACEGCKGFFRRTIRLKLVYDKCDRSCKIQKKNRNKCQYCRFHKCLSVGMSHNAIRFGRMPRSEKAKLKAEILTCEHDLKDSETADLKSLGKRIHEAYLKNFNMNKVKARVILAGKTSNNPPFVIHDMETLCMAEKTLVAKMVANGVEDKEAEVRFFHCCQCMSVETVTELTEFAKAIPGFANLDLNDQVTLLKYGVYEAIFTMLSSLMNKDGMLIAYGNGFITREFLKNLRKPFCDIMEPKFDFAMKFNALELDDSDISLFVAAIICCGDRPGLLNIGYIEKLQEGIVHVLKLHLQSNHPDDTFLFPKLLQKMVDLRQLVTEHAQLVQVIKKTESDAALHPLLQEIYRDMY

PPARγ [3] = target: T1, PPARγ; assay: FABP4 target gene expression (qPCR) in NIH 3T3 L1 cells at […]; conditions: NIH3T3, read-out: FABP4 target gene expression (qPCR) in NIH 3T3 L1 cells at 100 nM
PPARα [4] = target: T2, PPARα; assay: AOX target gene expression (qPCR) in FAO-PPARα cells at […]; conditions: fao-pparalpha cells, 0.1 µM
PPARγ [5] = target: T1, PPARγ; assay: FABP4 target gene expression and lipid accumulation in NIH 3T3 L1 cells, with PPARγ shRNA knockdown
PPARα [6] = target: T2, PPARα; assay: AOX target gene expression (qPCR) in FAO-PPARα cells

CCCCC(CC)COC(=O)c1ccccc1C(=O)O (stereo not drawn) [MEHP]
fold induction at 100 µM (PPARγ [1]): 11.5 ± 2.7 | fold induction at 100 µM (PPARα [2]): 5.4 ± 0.6

CN(CCOc1ccc(CC2SC(=O)NC2=O)cc1)c1ccccn1 (stereo not drawn) [rosiglitazone]
fold induction at 0.1 µM (PPARγ [3]): 6 ± 1.4

CC(C)(Sc1ccc(CCN(CCCCC2CCCCC2)C(=O)NC2CCCCC2)cc1)C(=O)O [GW7647, 2-(4-(2-(1-(cyclohexanebutyl)-3-cyclohexylureido)ethyl)phenylthio)-2-methylpropionic acid]
AOX target gene expression (qPCR) in FAO-PPARα cells at 100 nM (PPARα [4]): 4.9 ± 0.5 fold increase

CCCCC(CC)COC(=O)c1c(Br)c(Br)c(Br)c(Br)c1C(=O)O (stereo not drawn) [TBMEHP]
FABP4 target gene expression and lipid accumulation in NIH 3T3 L1 cells, with PP (PPARγ [5]): TBMEHP-induced expression of the PPARγ target gene, FABP4, was significantly impaired in PPARγ-shRNA transduced cells | AOX target gene expression (qPCR) in FAO-PPARα cells (PPARα [6]): TBMEHP, but not TBPH, significantly up-regulated the expression of both FABP4 and AOX mRNA
